Values after ≈ are worked out from the molar mass of the structure shown.
Legend:
Nucleic Acid = experiment: Compound was tested for the inhibition of Rev-RBE RNA complex formation; assay type: functional
Human rhinovirus sp. = experiment: Compound was tested for minimum inhibitory concentration against human rhinovirus 14 (HRV14); assay type: functional

SMILES | MIC (Nucleic Acid) [µM] | MIC (Human rhinovirus sp.) [µM]
NC[C@@H]1O[C@H](O[C@H]2[C@@H](O)[C@H](O[C@@H]3[C@@H](O)[C@H](N)C[C@H](N)[C@H]3O[C@H]3O[C@H](CN)[C@@H](O)[C@H](O)[C@H]3N)O[C@@H]2CO)[C@H](N)[C@@H](O)[C@@H]1O | 1 (≈ 0.615 µg/mL) | 
NC[C@H]1O[C@H](O[C@H]2[C@H](O[C@@H]3O[C@H](CO)[C@@H](O)[C@H]3O)[C@@H](O)[C@H](N)C[C@@H]2N)[C@H](N)[C@@H](O)[C@@H]1O | 100 (≈ 45.4 µg/mL) | 
CN[C@@H]1[C@@H](O)[C@@H](O[C@@H]2[C@@H](O)[C@H](O[C@H]3OC(CN)=CC[C@H]3N)[C@@H](N)C[C@H]2N)OC[C@]1(C)O | > 100 | 
Cc1cc(CCCCCOc2ccc(C3=NCCO3)cc2Cl)on1 |  | 2.4 (≈ 0.837 µg/mL)
CNC1C(O)C(OC2C(N)CC(N)C(OC3OC(CN)CCC3N)C2O)OCC1(C)O (stereo not drawn) | 100 (≈ 45 µg/mL) | 
NC[C@H]1O[C@H](O[C@H]2[C@H](O)[C@@H](O[C@H]3O[C@H](CO)[C@@H](O)[C@H](N)[C@H]3O)[C@H](N)C[C@@H]2N)[C@H](N)C[C@@H]1O | 10 (≈ 4.68 µg/mL) | 
CC[C@@H]1CN=C(c2ccc(OCCCCCCCc3cc(C)no3)cc2)O1 |  | 0.02 (≈ 0.00741 µg/mL)
NC[C@H]1O[C@H](O[C@H]2[C@H](O)[C@@H](O)[C@H](N)C[C@@H]2N)[C@H](N)[C@@H](O)[C@@H]1O | > 100 | 
Cc1cc(CCCCCCCOc2ccc(C3=NC[C@@H](C)O3)cc2)on1 |  | 0.03 (≈ 0.0107 µg/mL)
NC[C@H]1O[C@H](O[C@H]2[C@H](O)[C@@H](O[C@H]3O[C@H](CO)[C@@H](O)[C@H](N)[C@H]3O)[C@H](N)C[C@@H]2N)[C@H](N)[C@@H](O)[C@@H]1O | 100 (≈ 48.4 µg/mL) | 
NC[C@@H]1O[C@@H](O[C@H]2[C@H](O)[C@@H](O[C@H]3O[C@H](CO)[C@@H](O)[C@H](N)[C@H]3O)[C@H](N)C[C@@H]2N)[C@@H](O)[C@H](O)[C@H]1O | > 100 | 
NC[C@@H]1O[C@H](O[C@H]2[C@@H](O)[C@H](O[C@@H]3[C@@H](O)[C@H](N)C[C@H](N)[C@H]3O[C@H]3O[C@H](CO)[C@@H](O)[C@H](O)[C@H]3N)O[C@@H]2CO)[C@H](N)[C@@H](O)[C@@H]1O | > 100 | 
Cc1cc(CCCCCOc2ccc(C3=NC[C@@H](C)O3)cc2)on1 |  | 0.6 (≈ 0.197 µg/mL)
Cc1cc(CCCCCOc2ccc(C3=NCCO3)cc2)on1 |  | 0.5 (≈ 0.157 µg/mL)
NC[C@@H]1O[C@H](O[C@H]2[C@@H](O)[C@H](O[C@@H]3[C@@H](O)[C@H](N)C[C@H](N)[C@H]3O[C@H]3O[C@H](CO)[C@@H](O)C[C@H]3N)O[C@@H]2CO)[C@H](N)[C@@H](O)[C@@H]1O[C@H]1O[C@H](CO)[C@@H](O)[C@H](O)[C@@H]1O | 10 (≈ 7.62 µg/mL) | 
Cc1cc(CCCCCCCOc2ccc(C3=NC[C@@H](C)O3)cc2Cl)on1 |  | 0.2 (≈ 0.0782 µg/mL)
Cc1cc(CCCCCCCOc2ccc(C3=NC[C@H](C)O3)cc2)on1 |  | 0.4 (≈ 0.143 µg/mL)
Cc1cc(CCCCCCCOc2ccc(C3=NCCO3)cc2)on1 [DISOXARIL] |  | 0.6 (≈ 0.205 µg/mL)
